Values quoted from earlier work, collected in publication PMC10468453, “First-in-human study of a novel cell death tracer [^99mTc]Tc-Duramycin: safety, biodistribution and radiation dosimetry in healthy volunteers” (EJNMMI Radiopharmacy and Chemistry, 2023).

Details: humans; ref Challapalli et al. [2013]; Doss et al. [2013]; Hoglund et al. [2011]; Kemerink et al. [2003]; Quinn et al. [2016]
Source text: We determined the mean effective dose of [^99mTc]Tc-Duramycin as 7.6 µSv/MBq, corresponding to a total effective dose of 3.60 mSv for a patient dose of 473 MBq.

In the case of `O=C1C(=O)N(Cc2cn(CC[18F])nn2)c2ccc(S(=O)(=O)N3CCCC3COc3ccc(F)cc3F)cc21` (stereo not drawn) [[^18F]ICMT-11], the Effective dose is given as 12.5 mSv.
For “[^99mTc]HYNIC-annexin V: radiolabeled annexin V, a phosphatidylserine-binding protein”, the Effective dose is listed as 5.5 mSv.
For `O=C[C@H]([18F])[C@@H](O)[C@H](O)[C@H](O)CO` [[^18F]FDG, 2-[^18F]fluoro-2-deoxy-D-glucose], the Effective dose is given as 9.0 mSv.
